{"source": "ChEMBL document CHEMBL1201862", "about": "“PubChem BioAssay data set” (2004)", "key": {"[1]": {"molecular_target": "T1, Calpain-2 catalytic subunit (Sus scrofa, UniProt P43367)", "T1 sequence (P43367 whole entry)": "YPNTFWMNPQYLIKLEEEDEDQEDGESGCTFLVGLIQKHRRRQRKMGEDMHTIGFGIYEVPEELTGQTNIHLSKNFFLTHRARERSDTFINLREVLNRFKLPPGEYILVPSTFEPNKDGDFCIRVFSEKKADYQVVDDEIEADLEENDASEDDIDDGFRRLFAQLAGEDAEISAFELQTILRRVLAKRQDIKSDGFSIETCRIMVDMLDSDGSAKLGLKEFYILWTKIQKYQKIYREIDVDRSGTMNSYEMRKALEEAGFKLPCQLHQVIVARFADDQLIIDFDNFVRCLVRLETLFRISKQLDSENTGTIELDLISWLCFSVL", "experiment": "m-calpain protease blockers, concentration series – biochemical, fluorogenic peptide substrate, dose response (AID 1420)", "assay_type": "functional"}, "[2]": {"experiment": "viability of HCT116 lacking mutant beta-catenin – cell-based, human colon tumor, dose response (AID 1045);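 note: HCT116 colon tumor cells with beta catenin knocked out; cells exposed to compound for 60 hours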", "assay_type": "functional"}, "[3]": {"experiment": "viability of PTEN-deleted HCT116 cells – cell-based, HCT116 PTEN knockout, dose response (AID 1047);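 note: HCT116 colon tumor cells with PTEN knocked out; cells exposed to compound for 60 hours before readout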", "assay_type": "functional"}, "[4]": {"experiment": "toxicity to human HepG2 hepatoma cells – cell-based, plate reader, dry powder samples, cytotoxicity control, dose response (AID 1159569);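 note: inhibitor potency with signal falling toward the positive control level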", "assay_type": "functional"}, "[5]": {"experiment": "growth inhibition of yeast DHODH-expressing 3D7 parasites – SYBR Green, dry powder samples, dose response (AID 1159570);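 note: parasite growth measured after 72 hours of compound exposure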", "assay_type": "functional, cell-based"}, "[6]": {"experiment": "P. falciparum Dd2 growth inhibitors, dose response, SYBR Green, cherry-picked samples (AID 1159567)", "assay_type": "functional, cell-based"}, "[7]": {"experiment": "growth inhibition of PfATP4-mutant resistant parasites – NITD609-resistant line, SYBR Green, dry powder, dose response (AID 1159571);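 note: parasites synchronized at ring stage by sorbitol before testing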", "assay_type": "functional, cell-based"}, "[8]": {"experiment": "Dd2 malaria parasite growth inhibition potency – SYBR Green, dry powder samples, dose response (AID 1159566);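 note: potency for growth inhibition with lower SYBR green DNA signal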", "assay_type": "functional, cell-based"}, "[9]": {"molecular_target": "T2, Ubiquitin-conjugating enzyme E2 N (Homo sapiens, UniProt P61088)", "T2 sequence (P61088 whole entry)": "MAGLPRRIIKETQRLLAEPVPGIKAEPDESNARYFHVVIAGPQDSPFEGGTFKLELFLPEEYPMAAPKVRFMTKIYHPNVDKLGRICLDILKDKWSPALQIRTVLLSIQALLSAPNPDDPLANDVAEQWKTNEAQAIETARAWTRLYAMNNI", "assay_type": "functional"}, "[10]": {"experiment": "Trypanosoma cruzi growth suppression in host cells – NIH3T3 host cells, beta-gal luminescence, confirmation (AID 2044);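 note: luminescent beta-galactosidase reporter signal from transgenic T. cruzi replicating inside host cells; inhibitors lower the luminescence signal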", "assay_type": "functional, cell-based"}, "[11]": {"experiment": "NIH3T3 cell viability loss – ATP luminescence, mouse fibroblasts, counter-screen, dose response (AID 2010);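 note: cells exposed to compound for about 90 hours before reading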", "assay_type": "functional, cell-based"}, "[12]": {"experiment": "A cytotoxicity screen of small molecule inhibitors of the PhoP region in Salmonella typhi identified in the primary screen. [Related pubchem assays: 1850, 1864, 1985 ]", "assay_type": "functional"}, "cells [13]": {"experiment": "cells"}, "Protein skinhead-1": {"molecular_target": "T3, Protein skinhead-1 (Caenorhabditis elegans, UniProt P34707)", "T3 sequence (P34707 whole entry)": "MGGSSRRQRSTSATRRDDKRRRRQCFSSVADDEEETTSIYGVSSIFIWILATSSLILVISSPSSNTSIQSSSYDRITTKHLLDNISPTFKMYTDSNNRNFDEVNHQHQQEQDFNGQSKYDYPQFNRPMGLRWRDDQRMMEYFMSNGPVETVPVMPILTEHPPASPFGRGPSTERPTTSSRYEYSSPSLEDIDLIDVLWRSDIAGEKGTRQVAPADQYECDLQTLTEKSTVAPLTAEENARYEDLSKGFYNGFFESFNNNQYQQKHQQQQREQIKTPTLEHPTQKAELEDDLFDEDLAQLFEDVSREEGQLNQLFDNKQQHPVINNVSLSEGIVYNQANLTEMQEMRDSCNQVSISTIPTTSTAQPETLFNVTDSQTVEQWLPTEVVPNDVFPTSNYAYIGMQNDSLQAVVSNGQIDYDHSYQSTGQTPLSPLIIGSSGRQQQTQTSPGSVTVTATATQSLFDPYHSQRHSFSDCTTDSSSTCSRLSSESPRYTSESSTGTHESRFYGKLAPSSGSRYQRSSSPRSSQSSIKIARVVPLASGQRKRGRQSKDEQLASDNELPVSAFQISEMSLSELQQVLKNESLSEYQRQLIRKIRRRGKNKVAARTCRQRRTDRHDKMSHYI", "assay_type": "functional"}, "[14]": {"molecular_target": "T4, Heat shock factor protein 1 (Mus musculus, UniProt P38532)", "T4 sequence (P38532 whole entry)": "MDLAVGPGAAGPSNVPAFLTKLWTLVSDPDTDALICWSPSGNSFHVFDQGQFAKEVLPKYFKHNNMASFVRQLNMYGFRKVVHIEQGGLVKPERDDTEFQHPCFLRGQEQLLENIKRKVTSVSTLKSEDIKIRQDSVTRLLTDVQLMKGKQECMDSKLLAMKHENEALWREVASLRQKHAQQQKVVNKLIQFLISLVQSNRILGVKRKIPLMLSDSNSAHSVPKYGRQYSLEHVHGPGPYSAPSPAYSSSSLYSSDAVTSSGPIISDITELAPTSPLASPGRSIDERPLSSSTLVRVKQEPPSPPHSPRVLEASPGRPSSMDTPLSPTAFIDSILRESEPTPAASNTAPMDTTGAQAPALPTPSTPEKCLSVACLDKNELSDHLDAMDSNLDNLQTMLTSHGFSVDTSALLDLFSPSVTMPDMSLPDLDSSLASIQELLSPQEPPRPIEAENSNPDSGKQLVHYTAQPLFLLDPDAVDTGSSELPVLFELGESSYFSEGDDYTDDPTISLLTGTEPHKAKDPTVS", "experiment": "enhancement of HSF1-driven luciferase signal – cell-based, NIH3T3, luminescence, dose retest, confirmation (AID 435004);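 note: stress induced by proteasome inhibitor MG132 added 30 min after compound; actives raise luminescence as potentiators of the MG132 stress response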", "assay_type": "functional"}, "cells [15]": {"experiment": "cells", "remark": "listed apart in the source"}, "[16]": {"experiment": "Luminescence Cell-Based Dose Response HTS to Identify Inhibitors of 5'UTR Stem-Loop Driven Prion Protein mRNA Translation in H4 Neuroglioblastoma Cells. [Related pubchem assays: 1827 (Project Summary), 1813 (Primary HTS)]", "assay_type": "functional"}, "[17]": {"experiment": "viability of uninfected HEp-2 cells – cell-based, HTS, cytotoxicity control for RSV inhibitor project, dose response (AID 2410)", "assay_type": "functional", "settings": "human respiratory syncytial virus"}, "[18]": {"experiment": "Luminescence Cell-Based Dose Retest to Confirm Inhibitors of Cancer Stem Cells. [Related pubchem assays (depositor defined):AID2717, AID2721]", "assay_type": "functional", "settings": "Homo sapiens"}, "[19]": {"experiment": "alpha-synuclein stem-loop luciferase translation blockers – H4 neuroglioma cells, luminescence, confirmation (AID 1988)", "assay_type": "functional, cell-based"}, "[20]": {"experiment": "luciferase reporter signal suppression in cells – H4 neuroglioma cells, luminescence, dose response (AID 1990)", "assay_type": "functional, cell-based"}}, "note": "Active and inactive are the calls of the source.", "data": [{"smiles": "COc1ccccc1NC(=O)/C=C\\C(=O)O", "values": [{"measurement": "IC50", "setting": "[1]", "value": "17.4 µM (not active)"}]}, {"smiles": "O=C(/C=C/c1ccccc1)Nc1nnc(SCC(=O)c2ccc3ccccc3c2)s1", "values": [{"measurement": "EC50", "setting": "[2]", "value": "9.72 µM (active)"}, {"measurement": "EC50", "setting": "[3]", "value": "9.17 µM (active)"}]}, {"smiles": "C[C@H]1CN([C@@H](C)CO)C(=O)c2c(c3ccccc3n2C)-c2ccccc2CO[C@H]1CN(C)C(=O)Nc1ccc(-c2ccccc2)cc1", "values": [{"measurement": "AC50", "setting": "[4]", "value": "> 100 µM (inactive)"}, {"measurement": "AC50", "setting": "[5]", "value": "2.71 µM (active)"}, {"measurement": "AC50", "setting": "[6]", "value": "2.08 µM (active)"}, {"measurement": "AC50", "setting": "[7]", "value": "0.634 µM (active)"}, {"measurement": "AC50", "setting": "[8]", "value": "0.656 µM (active)"}]}, {"smiles": "COc1ccc2cc3cc(C(=O)Nc4ccccc4N4CCN(C)CC4)oc3nc2c1", "values": [{"measurement": "EC50", "setting": "[2]", "value": "2.25 µM (active)"}, {"measurement": "IC50", "setting": "[9]", "value": "> 20 µM (inactive)"}, {"measurement": "EC50", "setting": "[10]", "value": "1.65 µM (active)"}, {"measurement": "EC50", "setting": "[3]", "value": "1.43 µM (active)"}, {"measurement": "EC50", "setting": "[11]", "value": "4.47 µM (active)"}]}, {"smiles": "N#Cc1ccc(-c2ccc(OCC(=O)NCCCN3CCCC3=O)cc2)cc1", "values": [{"measurement": "EC50", "setting": "[12]", "value": "> 50 µM (active)"}]}, {"smiles": "CCn1nc(C)c(CN2CCCC(C(=O)c3cccc(OC(C)C)c3)C2)c1C", "note": "(stereo unspecified)", "values": [{"measurement": "EC50", "setting": "cells [13]", "value": "0.21 µM (active)"}, {"measurement": "EC50", "setting": "[10]", "value": "< 0.1 µM (active)"}, {"measurement": "EC50", "setting": "[11]", "value": "> 60 µM (not active)"}]}, {"smiles": "O=C(CSc1nc2ccccc2c2nc3ccccc3n12)NCc1ccco1", "values": [{"measurement": "IC50", "setting": "Protein skinhead-1", "value": "> 100 µM (inactive)"}, {"measurement": "EC50", "setting": "[14]", "value": "> 260 µM (inactive)"}, {"measurement": "IC50", "setting": "cells [15]", "value": "45.6 µM (active)"}]}, {"smiles": "CC(=O)Nc1ccc(S(=O)(=O)NCC2CCC(C(=O)NCCC3=CCCCC3)CC2)cc1", "note": "(stereo unspecified)", "values": [{"measurement": "IC50", "setting": "[1]", "value": "9.12 µM (not active)"}]}, {"smiles": "C=CCSc1nc2sc3c(c2c(=O)n1-c1ccccc1)CCN(C)C3", "values": [{"measurement": "EC50", "setting": "cells [13]", "value": "0.474 µM (active)"}, {"measurement": "EC50", "setting": "[10]", "value": "< 0.1 µM (active)"}, {"measurement": "EC50", "setting": "[11]", "value": "> 60 µM (not active)"}]}, {"smiles": "COc1ccc(CNc2nc3ccccc3n2C)c(O)c1", "values": [{"measurement": "EC50", "setting": "[12]", "value": "> 50 µM (active)"}]}, {"smiles": "O=C(Nc1ccncc1)c1cc(-c2cccc(Br)c2)nc2ccccc12", "values": [{"measurement": "EC50", "setting": "[16]", "value": "> 120 µM (not active)"}, {"measurement": "CC50", "setting": "[17]", "value": "22.7 µM (active)"}, {"measurement": "IC50", "setting": "cells [15]", "value": "17.4 µM (active)"}, {"measurement": "AC50", "setting": "[18]", "value": "5.05 µM (active)"}, {"measurement": "EC50", "setting": "[19]", "value": "> 120 µM (not active)"}, {"measurement": "EC50", "setting": "[20]", "value": "> 120 µM (not active)"}]}]}
